Measurements as given in paper PMC5430920 (Scientific Reports, 2017).

Legend:
[1] = target: T1, MtOPRT (Mycobacterium tuberculosis, UniProt P9WHK9)
T1 construct: gene pyrE

[2] = target: T1, MtOPRT; remark: listed apart in the source

T1 sequence (P9WHK9 whole entry): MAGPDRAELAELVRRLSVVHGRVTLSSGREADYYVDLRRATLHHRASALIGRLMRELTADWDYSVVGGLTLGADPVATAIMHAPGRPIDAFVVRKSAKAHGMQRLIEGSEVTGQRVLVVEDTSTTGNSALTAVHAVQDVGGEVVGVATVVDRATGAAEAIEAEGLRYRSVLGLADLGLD

Row | Compound | X-ray crystal structure, 2.25 Å [1] | X-ray crystal structure, 1.90 Å [2]
1 | O=P(O)(O)OC[C@H]1O[C@H](OP(=O)(O)OP(=O)(O)O)[C@H](O)[C@@H]1O [PRPP, α-D-5-phosphoribosyl-1-pyrophosphate] | A PRPP molecule could be unambiguously identified in the active site in both monomers | –
2 | O=P(O)(O)O [Pi, inorganic phosphate] | – | the inorganic phosphate occupies the same binding pocket of the 5-phosphate group of PRPP
